Laboratory results published in the supplement of paper PMC10307832.

Tests used:
Experiment in all cases: relative viability (nuclei count vs DMSO), 5 days (fraction); higher = more cells survive
FH535 + Lapatinib = compound: CC1=C(C=CC(=C1)[N+](=O)[O-])NS(=O)(=O)C2=C(C=CC(=C2)Cl)Cl [FH535] + CS(=O)(=O)CCNCc1ccc(-c2ccc3ncnc(Nc4ccc(OCc5cccc(F)c5)c(Cl)c4)c3c2)o1 [Lapatinib] (partner 2 µM)
Summary of the method: (§1)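 Relative viability divides the nuclei count in treated wells by that in vehicle wells. Lung cancer cell lines were seeded in 1536-well plates, dosed by pin tool the next day, and fixed and stained after 5 days in one step with final 0.05% Triton X-100, 1% formaldehyde and 1 ug/ml Hoechst. Dosing was a single drug or a fixed anchor-drug dose plus five library-drug doses (not always all listed) in √10 steps, and values are medians of duplicate plates imaged at 4×.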

FH535 + Pemetrexed = compound: CC1=C(C=CC(=C1)[N+](=O)[O-])NS(=O)(=O)C2=C(C=CC(=C2)Cl)Cl [FH535] + Nc1nc2[nH]cc(CCc3ccc(C(=O)N[C@@H](CCC(=O)O)C(=O)O)cc3)c2c(=O)[nH]1 [Pemetrexed] (partner 0.2 µM)
Summary of the method: as §1

FH535 + Bortezomib = compound: CC1=C(C=CC(=C1)[N+](=O)[O-])NS(=O)(=O)C2=C(C=CC(=C2)Cl)Cl [FH535] + CC(C)C[C@H](NC(=O)[C@H](Cc1ccccc1)NC(=O)c1cnccn1)B(O)O [Bortezomib] (partner 0.002 µM)
Summary of the method: as §1

FH535 + Palbociclib = compound: CC1=C(C=CC(=C1)[N+](=O)[O-])NS(=O)(=O)C2=C(C=CC(=C2)Cl)Cl [FH535] + CC(=O)c1c(C)c2cnc(Nc3ccc(N4CCNCC4)cn3)nc2n(C2CCCC2)c1=O [Palbociclib] (partner 0.5 µM)
Summary of the method: as §1

FH535 + Pictilisib = compound: CC1=C(C=CC(=C1)[N+](=O)[O-])NS(=O)(=O)C2=C(C=CC(=C2)Cl)Cl [FH535] + CS(=O)(=O)N1CCN(Cc2cc3nc(-c4cccc5[nH]ncc45)nc(N4CCOCC4)c3s2)CC1 [Pictilisib] (partner 1 µM)
Summary of the method: as §1

Row | Cell Line | relative viability (FH535 + Lapatinib; first compound 0.04 µM) | relative viability (FH535 + Lapatinib; first compound 0.1265 µM) | relative viability (FH535 + Lapatinib; first compound 0.4 µM) | relative viability (FH535 + Lapatinib; first compound 1.265 µM) | relative viability (FH535 + Pemetrexed; first compound 0.04 µM) | relative viability (FH535 + Pemetrexed; first compound 0.1265 µM) | relative viability (FH535 + Pemetrexed; first compound 0.4 µM) | relative viability (FH535 + Pemetrexed; first compound 1.265 µM) | relative viability (FH535 + Bortezomib; first compound 0.04 µM) | relative viability (FH535 + Bortezomib; first compound 0.1265 µM) | relative viability (FH535 + Bortezomib; first compound 0.4 µM) | relative viability (FH535 + Bortezomib; first compound 1.265 µM) | relative viability (FH535 + Palbociclib; first compound 0.04 µM) | relative viability (FH535 + Palbociclib; first compound 0.1265 µM) | relative viability (FH535 + Palbociclib; first compound 0.4 µM) | relative viability (FH535 + Palbociclib; first compound 1.265 µM) | relative viability (FH535 + Pictilisib; first compound 0.04 µM) | relative viability (FH535 + Pictilisib; first compound 0.1265 µM) | relative viability (FH535 + Pictilisib; first compound 0.4 µM) | relative viability (FH535 + Pictilisib; first compound 1.265 µM)
1 | NCI-H1666 | 0.601 | 0.623 | 0.634 | 0.421 | 0.838 | 0.834 | 0.948 | 0.794 | 0.725 | 0.882 | 0.705 | 0.625 | 0.674 | 0.639 | 0.614 | 0.631 | 0.481 | 0.443 | 0.404 | 0.4
2 | NCI-H1734 | 1.01 | 1.14 | 0.955 | 0.935 | 0.45 | 0.434 | 0.415 | 0.388 | 0.775 | 0.894 | 0.771 | 0.828 | 0.375 | 0.312 | 0.351 | 0.332 | 0.458 | 0.523 | 0.489 | 0.416
3 | NCI-H1755 | 1.04 | 0.985 | 0.944 | 0.949 | 0.406 | 0.42 | 0.342 | 0.413 | 0.982 | 0.951 | 0.793 | 0.817 | 0.428 | 0.413 | 0.463 | 0.448 | 0.341 | 0.449 | 0.421 | 0.415
4 | NCI-H1792 | 0.837 | 0.948 | 0.866 | 0.673 | 0.708 | 0.807 | 0.673 | 0.54 | 0.971 | 0.932 | 0.835 | 0.688 | 0.657 | 0.629 | 0.664 | 0.486 | 0.251 | 0.289 | 0.317 | 0.256
5 | NCI-H1915 | 0.867 | 0.826 | 0.852 | 0.795 | 0.472 | 0.522 | 0.498 | 0.487 | 0.955 | 0.855 | 0.986 | 0.904 | 0.537 | 0.501 | 0.469 | 0.45 | 0.732 | 0.903 | 0.835 | 0.77
